Assay results as given in publication PMC11480993, “Combining Data-Driven and Structure-Based Approaches in Designing Dual PARP1-BRD4 Inhibitors for Breast Cancer Treatment” (Journal of Chemical Information and Modeling, 2024).
Read-outs that look alike come from different tables or passages of the source.

What was measured:
[1] = tested on: HEK293T (human embryonic kidney cell); test: Cytotoxicity against non-tumor cells, HEK293T; assay type: cell-based; conditions: HEK-293T, 96 h, 4-day treatment
From the text: To further establish HF4’s advantage, we employed a web-based in silico cytotoxicity prediction tool (https://www.way2drug.com/clc-pred/index.php), encompassing the prediction against 391 tumor and 47 normal human cell lines,[47] to predict the cytotoxicity of HF4 against nontumor cell lines. […] The absence of nontumor cell lines among the top-ranked ones indicates a limited impact on normal cell line. When threshold of ≥0.15 was applied, among 50 predictions, only a single normal cell line (HEK293) was present in the list, with a predicted probability value below 0.2. We further reinforced the safety profile of HF4 by conducting experimental safety assessments on two normal cell lines. […] In summary, we conducted both computational safety predictions and experimental evaluations on normal cell lines to strengthen the assurance of HF4’s safety profile.
Cytotoxicity of HF4 against non-tumor cells
Figure S6. Cytotoxicity of HF4 against non-tumor cells during a 4-day treatment.
(1 picture or pasted object on this page, not shown here)

MCF-7 cells [2] = test: Alkaline comet assay; assay type: cell-based; conditions: 4 and 8 μM, 48 h, MCF-7, compared to control
Procedure: The Alkaline comet assay was executed in accordance with the manufacturer’s instructions. Following a 48 h treatment period, cells were harvested and combined with low melting point agarose. The resulting mixture was layered onto slides coated with agarose as a normal melting point agarose. Subsequently, the cells on the slides were lysed overnight at 4 °C and then unwound in an alkaline unwinding solution for 30 min at room temperature. Following electrophoresis, the samples were neutralized and stained with propidium iodide. The outcomes were visualized using a confocal microscope (Nikon A1 HD25), with three random images captured from each slide.

MCF-7 cells [3] = test: Cell cycle detection (PI flow cytometry); assay type: cell-based; conditions: for cell cycle G0/G1 / cell cycle G2/M / cell cycle S: 24 h
Procedure: Cell cycle analysis was performed using a PI cell cycle detection kit. Following a 24 h treatment, cells were gathered, fixed with 75% ethanol, and stained with PI according to the manufacturer’s protocol. Subsequently, cell cycle analysis was detected using BD FACSCelesta flow cytometry (New York, USA). The obtained data were then subjected to analysis using FlowJo_V10.

BRD4 = BRD4 (Homo sapiens, UniProt O60885); test: BRD TR-FRET assay, BRD4; assay type: binding
Procedure: The assay was performed by TR-FRET technology using a BRD and its corresponding ligand (BET). The TR-FRET signal from the assay is correlated with the amount of ligand binding to the bromodomain. All of the binding reactions were conducted at room temperature. The 20 μL reaction mixture in Assay Buffer contains either bromodomains, BET Ligand, and the indicated amount of inhibitor. For the negative control (blank), 5 μL of the assay buffer was added instead of the BET ligand. The reaction mixture was incubated for 120 min. After the incubation with the ligand, the TR-FRET signal was measured using a Tecan Infinite M1000 plate reader.

IC50 (BRD4): 1.21 ± 0.324 µM | ligand efficiency index against BRD4 (BRD4; pIC50 divided by HAC, HAC = 25): 0.24 | IC50 (BRD4; value of the text): 1.2 µM | reduction in capacity to inhibit BRD4 relative to PFI-1 (BRD4; vs PFI-1): around 5 fold
SMILES: CCc1cc2cc(NS(=O)(=O)c3ccc(F)c(C)c3)ccc2[nH]c1=O [HF4, N-(3-ethyl-2-oxo-1,2-dihydroquinolin-6-yl)-4-fluoro-3-methylbenzenesulfonamide]
IC50 [1]: 21.5 ± 7.4 µM | DNA damage (comet tail length, percentage of damaged DNA) (MCF-7 cells [2]): increase in both tail length and the percentage of damaged DNA | effect on cell cycle (MCF-7 cells [3]): halted the cell cycle at the G0/G1 phase | cell cycle G0/G1 (MCF-7 cells [3]; 2 μM): 83.0% | cell cycle G2/M (MCF-7 cells [3]; 2 μM): 0.51% | cell cycle S (MCF-7 cells [3]; 2 μM): 17.0% | cell cycle G0/G1 (MCF-7 cells [3]; 4 μM): 89.0% | cell cycle G2/M (MCF-7 cells [3]; 4 μM): 2.96% | cell cycle S (MCF-7 cells [3]; 4 μM): 9.42% | cell cycle G0/G1 (MCF-7 cells [3]; 8 μM): 92.0% | cell cycle G2/M (MCF-7 cells [3]; 8 μM): 4.55% | cell cycle S (MCF-7 cells [3]; 8 μM): 7.63%
